From article PMC5794198, “Inhibitors of Trypanosoma cruzi Sir2 related protein 1 as potential drugs against Chagas disease” (PLoS Neglected Tropical Diseases, 2018)
Entries after “also recorded” stand apart in the source; their conditions may differ.

Legend:
[1] = test system: T. cruzi Y strain (Luc+); assay: Mouse model of T. cruzi infection, bioluminescence imaging; format: in vivo, BALB/c mice; details: 5 mg/kg/day intravenously for 4 consecutive days from day 7 of infection; listed as BNIPSpd (9)
Protocol: To evaluate BNIPSpd (9) efficacy in vivo, five- to six-week-old female BALB/c mice (Charles River) and infected with T. cruzi trypomastigotes expressing luciferase. Parasites were collected from the supernatants of a monolayer of Vero infected cells, washed and suspended in PBS-glucose 0.2%, and injected intraperitoneally (1 x 10^4 per mouse). After 7 days of infection, mice were treated with drugs for 4 consecutive days orally with (benznidazole in 20% Kolliphor HS 15) or intravenously with (BNIPSpd (9) in 10% DMSO) at a dose of 100 or 5 mg/kg/day, respectively. Infection and treatment efficiency were evaluated following subcutaneous injection of 2.1 mg of luciferin and through live imaging using an IVIS Lumina LT (Perkin Elmer). Images of the animals were analysed using the Living Image software (Perkin Elmer).
Supplementary file pntd.0006180.s006.tif: S5 Fig In vivo efficacy testing of BNIPSpd (9). A) Mice were infected with 10^4 Luc^+ trypomastigotes by intraperitoneal injection. […] In the lower panel, bioluminescence signal of whole mice represented in average radiance (photons/sec/cm^2/sr) quantified before and after treatment. […] B) Snapshot Pharmacokinetics of BNIPSpd (9) in BALB/c mice by quantification of BNIPSpd (9) in the blood of mice by UHPLC-MS/MS ESI+ at different time-points after administration of a 5 mg/kg dose by intravenous injection. […]

[2] = test system: Neurons; assay: MTT cytotoxicity on neurons; format: cell-based
Protocol: (§1) To evaluate toxicity towards mammalian cell lines (hepatocytes (Seralab), neurons and MDCK cells (ATCC); a renal cell line from dogs), all the compounds were assayed with MTT [66]. Additionally, for cardiotoxicity evaluation, where toxic effects in cardiomyocytes could be affecting their function before being lethal, a hERG assay was performed according to the manufacturer’s protocol Predictor hERG Fluorescence Polarization Assay (Invitrogen). Briefly, inhibition of hERG channel was analysed by competition of BNIPSpd and a high-affinity red fluorescent hERG channel ligand. BNIPSpd (9) was mixed with the ligand and membranes containing hERG channel, incubated for 2 hrs at RT and the fluorescence polarization was measured using 530 / 590 nm ex/em filters using the Synergy 2 plate reader (Biotek).

[3] = target: T1, hERG channel (Homo sapiens, UniProt Q12809); assay: Predictor hERG Fluorescence Polarization Assay; format: binding
T1 construct: purchased Invitrogen
T1 sequence (Q12809 whole entry): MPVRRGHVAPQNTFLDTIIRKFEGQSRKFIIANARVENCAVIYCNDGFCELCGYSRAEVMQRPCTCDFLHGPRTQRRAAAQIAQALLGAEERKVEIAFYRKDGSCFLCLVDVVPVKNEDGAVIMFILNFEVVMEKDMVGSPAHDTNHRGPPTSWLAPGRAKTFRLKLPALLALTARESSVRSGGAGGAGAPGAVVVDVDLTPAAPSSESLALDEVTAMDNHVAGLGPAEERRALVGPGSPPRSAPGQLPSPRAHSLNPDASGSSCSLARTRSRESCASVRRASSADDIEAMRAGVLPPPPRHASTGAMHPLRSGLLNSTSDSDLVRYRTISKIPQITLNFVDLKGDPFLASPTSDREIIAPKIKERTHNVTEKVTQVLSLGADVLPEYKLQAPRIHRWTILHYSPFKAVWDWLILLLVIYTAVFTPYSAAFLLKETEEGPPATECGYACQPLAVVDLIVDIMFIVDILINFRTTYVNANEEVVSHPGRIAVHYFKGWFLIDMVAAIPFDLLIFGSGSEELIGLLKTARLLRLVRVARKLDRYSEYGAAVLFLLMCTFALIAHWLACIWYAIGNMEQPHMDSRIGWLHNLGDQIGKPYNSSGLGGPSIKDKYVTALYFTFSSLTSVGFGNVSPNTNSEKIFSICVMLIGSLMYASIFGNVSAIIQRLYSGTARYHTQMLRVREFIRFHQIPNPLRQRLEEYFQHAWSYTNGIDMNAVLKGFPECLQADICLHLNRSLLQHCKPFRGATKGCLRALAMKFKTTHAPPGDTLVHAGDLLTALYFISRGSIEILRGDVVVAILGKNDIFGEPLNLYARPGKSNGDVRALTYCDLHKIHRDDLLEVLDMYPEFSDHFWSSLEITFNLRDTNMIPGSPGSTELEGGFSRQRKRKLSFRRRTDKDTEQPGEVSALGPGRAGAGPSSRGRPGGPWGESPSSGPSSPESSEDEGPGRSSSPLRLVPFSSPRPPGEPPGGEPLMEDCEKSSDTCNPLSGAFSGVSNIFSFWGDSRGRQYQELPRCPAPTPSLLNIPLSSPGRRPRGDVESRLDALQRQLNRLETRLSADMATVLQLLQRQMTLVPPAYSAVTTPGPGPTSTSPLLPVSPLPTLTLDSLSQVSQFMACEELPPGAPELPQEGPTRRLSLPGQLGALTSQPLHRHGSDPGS
Protocol: as §1

[4] = target: TcSir2rp1 (Trypanosoma cruzi, UniProt Q4DVL9); assay: TcSir2rp1 NAD+-dependent deacetylase fluorimetric assay (CycLex kit); format: biochemical
TcSir2rp1, sequence (Q4DVL9 entry or part of it): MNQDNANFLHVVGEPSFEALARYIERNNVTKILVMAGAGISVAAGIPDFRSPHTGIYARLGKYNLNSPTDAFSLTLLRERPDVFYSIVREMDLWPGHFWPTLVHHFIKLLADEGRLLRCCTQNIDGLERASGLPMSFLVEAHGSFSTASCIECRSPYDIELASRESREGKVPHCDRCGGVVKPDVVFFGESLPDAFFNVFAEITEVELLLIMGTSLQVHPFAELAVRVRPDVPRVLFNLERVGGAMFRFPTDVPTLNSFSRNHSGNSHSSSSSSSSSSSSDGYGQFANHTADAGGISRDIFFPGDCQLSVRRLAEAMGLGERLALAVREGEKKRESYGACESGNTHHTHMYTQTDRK

[5] = single dose 10 μM, 200 μM NAD+, 10 μM peptide

Q: For `O=C1c2cccc3cccc(c23)C(=O)N1CCCNCCCCNCCCNCCCN1C(=O)c2cccc3cccc(c23)C1=O` [Compound 9, BNIP Spermidine], which “In vivo activity (bioluminescence signal vs vehicle)” value [1] is on record?
A: did not exhibit any in vivo activity; also recorded: lack of in vivo activity

Q: What about the “Neurotoxicity (Neurons) cytotoxicity” value [2] of the same compound?
A: ≥ 3.9 µM

Q: What about the hERG channel functional [3] of the same compound?
A: 99.6%

Q: What about the “Cardiotoxicity (hERG predictor)” value ([3]; fluorescence polarization competition, 2 hrs RT) of the same compound?
A: 0.36 ± 0.51%

Q: What about the inhibition at 50 µM ([4]; 50 μM) of the same compound?
A: 72 ± 6%

Q: What about the “Inhibition of NAD+-dependent deacetylase activity of TcSir2rp1” value [4, 5] of the same compound?
A: statistically significant inhibition

Q: And the inhibition at 10 µM [4, 5]?
A: ~50%
